Assays:
[1] = test system: ADAMTS2; test: Gene-expression analysis (PCR) in normal human dermal fibroblasts; type: cell-based; settings: peptide 0.01% in growth medium, timepoint 24hrs
Method: (§1) Normal human dermal fibroblasts at passage 7 from a donor were cultured in DMEM with L-glutamine 2mM, Penicillin 50U/ml-Streptomycin 50ug/ml and 10% FCS in a 5% CO2 atmosphere at 37°C. After equilibration of cell in 1% FCS for 24hrs the respective peptides H-(beta-Ala)-Pro-Dab-NH-benzyl [CAS 823202-99-9], respectively N-palmitoyl-Gly-His-Lys [147732-56-7] / N-palmitoyl-Gly-Gln-Pro-Arg [221227-05-0] (2:1) diluted in growth medium to a concentration of 0.01% were added and the cells were incubated for an additional 24hrs. At the end of incubation cells were washed in PBS and immediately frozen at -80°C. Total RNA was extracted using NucleoSpin RNA Plus kit (Macherey-Nagel) according to supplier's instructions. cDNA was synthesized by reverse transcription of total RNA using Transcriptor Reverse Transcriptase (Roche). PCR was performed on a LightCycler device (Roche Molecular Systems Inc.) according to manufacturer's instructions. Raw data were analyzed using Microsoft Excel.

[2] = test system: LOXL2; test: as above; type: cell-based; settings: peptide 0.01% in growth medium, timepoint 24hrs
Method: as §1

[3] = test system: PCOLCE; test: as above; type: cell-based; settings: peptide 0.01% in growth medium, timepoint 24hrs
Method: as §1

[4] = test system: PLOD3; test: as above; type: cell-based; settings: peptide 0.01% in growth medium, timepoint 24hrs
Method: as §1

[5] = test system: genes involved in collagen fiber maturation; test: Gene-expression analysis, summary statement in words; type: cell-based, human; settings: result in words; fibroblasts, 0.01%, 24hrs
Method: as §1

“N-palmitoyl-Gly-His-Lys [147732-56-7] / N-palmitoyl-Gly-Gln-Pro-Arg [221227-05-0] (2:1)” was tested, and the “gene expression ADAMTS2” value [1] was 105%, the “gene expression LOXL2” value [2] was 292% and the “gene expression PCOLCE” value [3] was 94%. For the same substance, the “gene expression PLOD3” value [4] was 163% and the “up-regulation of genes involved in collagen fiber maturation” value [5] was “only up-regulates LOXL2 and much less PLOD3”.

Reference: EP3389689B1, “ACTIVE INGREDIENTS FOR TOPICAL APPLICATION” (priority 2015, dated 2021)
